This experiment concerns the target T1, CETP (Homo sapiens, UniProt P11597).
T1 construct: from tissue; host or cells: human plasma from healthy men
T1 sequence (P11597 18-493): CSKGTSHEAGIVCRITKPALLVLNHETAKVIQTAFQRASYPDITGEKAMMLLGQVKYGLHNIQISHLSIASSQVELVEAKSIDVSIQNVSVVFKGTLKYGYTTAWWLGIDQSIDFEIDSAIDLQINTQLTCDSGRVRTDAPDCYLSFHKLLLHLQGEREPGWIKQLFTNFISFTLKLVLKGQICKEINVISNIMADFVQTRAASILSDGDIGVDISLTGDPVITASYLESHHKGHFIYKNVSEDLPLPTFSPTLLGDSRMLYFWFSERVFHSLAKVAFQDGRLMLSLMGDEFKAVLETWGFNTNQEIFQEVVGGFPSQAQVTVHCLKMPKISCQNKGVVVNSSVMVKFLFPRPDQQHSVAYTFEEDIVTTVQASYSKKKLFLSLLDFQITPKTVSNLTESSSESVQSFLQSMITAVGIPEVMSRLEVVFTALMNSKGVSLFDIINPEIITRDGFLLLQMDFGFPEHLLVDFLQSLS
As to the kind of experiment: Inhibitory activity against CETP in human plasma (Roar CETP activity kit, fluorescence). The format is biochemical. To be noted: plasma from healthy men diluted 1:10 in assay buffer, 37° C., 3 hrs, fluorescence 465/535 nm; read-out: IC50, Inhibition of CETP Activity in Human Plasma. As to the method: A CETP activity kit (#RB-CETP) was purchased from Roar […], Inc. A donor and an acceptor (each, 4 ul), a 10× assay buffer (177 ul), and each of dilutions of test compounds in dimethylsulfoxide (DMSO, Sigma-Aldrich) (0.01 nM˜10000 nM) were added to each well of black round-bottom 96-well plates (Corning #3792). Plasma samples from healthy men were diluted in the assay buffer (1:10=plasma:assay buffer), and added to each well. The plates were sealed with a sealing film (Sigma-Aldrich, #Z369659), and incubated in a 37° C. incubator microplate shaker (#SLST-3, Seolin Bio) for 3 hrs. After removal of the sealing film, fluorescence was read on Spectra Max Gemini EM (Molecular devices) with an excitation wavelength of 465 nm and an emission wavelength of 535 nm. Measurements were calculated according to the following formula. Calculated value=(Fluorescence Intensity with both compound and plasma−Fluorescence Intensity with compound but without plasma)/(Fluorescence Intensity with plasma but without compound−Fluorescence Intensity with neither compound nor plasma)
From the calculated value, a sigmoidal curve (y=start+(end-start)x^n/k^n+x^n) was drawn using Origin Software (OriginLab Corporation, ver. 8.0724) to obtain IC50 values.
In the case of “(4S,5R)-5-[3,5-bis(trifluoromethyl)phenyl]-4-methyl-3-({[2-(ethyl)(cyclohexyl)amino]-5-(1,3-dimethyl-1H-pyrazol-4-yl)pyridin-3-yl}methyl)-oxazolidin-2-one [Example 69]”, the concentration for half-maximal inhibition (IC50) was 13.4 nM.

In the case of `C[C@H]1C(c2cc(C(F)(F)F)cc(C(F)(F)F)c2)OC(=O)N1Cc1nc(C2CCC2)cnc1N(C)C[C@H]1CC[C@H](CC(=O)O)CC1` (stereo partly drawn) [Example 128], the IC50 is 23.9 nM.

For the compound `CCOC(=O)c1c(C)noc1-c1cnc(N(CC)C2CCCCC2)c(CN2C(=O)O[C@H](c3cc(C(F)(F)F)cc(C(F)(F)F)c3)[C@@H]2C)c1` [Example 74], the IC50 is 63.2 nM.

As for `CCN(c1ncc(-c2cn[nH]c2)cc1CN1C(=O)O[C@H](c2cc(C(F)(F)F)cc(C(F)(F)F)c2)[C@@H]1C)C1CCCCC1` [Example 68, (4S,5R)-5-[3,5-bis(trifluoromethyl)phenyl]-4-methyl-3-({[2-(ethyl)(cyclohexyl)amino]-5-(1H-pyrazol-4-yl)pyridin-3-yl}methyl)-oxazolidin-2-one], the half-maximal inhibitory concentration (IC50) turned out to be 334 nM.

Turning to `CCN(CC1CCC(CC(=O)O)CC1)c1ncc(-c2ccnn2C)nc1CN1C(=O)OC(c2cc(C(F)(F)F)cc(C(F)(F)F)c2)C1C` [Example 106, trans-4-({[3-({(4S,5S)-5-[3,5-bis(trifluoromethyl)phenyl]-4-methyl-2-oxazolidin-3-yl}methyl)-5-(1-methyl-1H-pyrazol-5-yl)pyrazin-2-yl]{[N-(ethyl)aminomethyl]cyclohexyl)}acetic acid], the IC50 stood at 30.3 nM.

As to `CCN(c1ncc(-c2ccccc2)cc1CN1C(=O)O[C@H](c2cc(C(F)(F)F)cc(C(F)(F)F)c2)[C@@H]1C)C1CCOCC1` [Example 45, (4S,5R)-5-[3,5-bis(trifluoromethyl)phenyl]-4-methyl-3-({[2-(ethyl)(tetrahydro-2H-pyran-4-yl)amino]-5-phenylpyridin-3-yl}methyl)-oxazolidin-2-one], the IC50 is 26.9 nM.

Regarding `CCN(c1ncc(-c2cscc2C)cc1CN1C(=O)O[C@H](c2cc(C(F)(F)F)cc(C(F)(F)F)c2)[C@@H]1C)C1CCCCC1` [Example 86, (4S,5R)-5-[3,5-bis(trifluoromethyl)phenyl]-4-methyl-3-({[2-(ethyl)(cyclohexyl)amino]-5-(3-methyl-thiophen-4-yl)pyridin-3-yl}methyl)-oxazolidin-2-one], the IC50 is 30.4 nM.

For `CCC1CCCN1c1cnc(N(CC)C2CCCCC2)c(CN2C(=O)O[C@H](c3cc(C(F)(F)F)cc(C(F)(F)F)c3)[C@@H]2C)c1` (stereo partly drawn) [Example 90, (4S,5R)-5-[3,5-bis(trifluoromethyl)phenyl]-4-methyl-3-({[2-(ethyl)(cyclohexyl)amino]-5-(2-ethyl-pyrrolidin-1-yl)pyridin-3-yl}methyl)-oxazolidin-2-one], the concentration for half-maximal inhibition (IC50) was 11.8 nM.

As to `C[C@H]1[C@@H](c2cc(C(F)(F)F)cc(C(F)(F)F)c2)OC(=O)N1Cc1cc(C(F)(F)F)cnc1N(C)C1CCCOCC1` (stereo partly drawn) [Example 20, (4S,5R)-5-[3,5-bis(trifluoromethyl)phenyl]-4-methyl-3-({[2-(methyl)(oxepen-4-yl)amino]-5-(trifluoromethyl)pyridin-3-yl}methyl)-oxazolidin-2-one], the half-maximal inhibitory concentration (IC50) turned out to be 59 nM.

Take `CCN(c1ncc(-c2c(C)noc2C)cc1CN1C(=O)O[C@H](c2cc(C(F)(F)F)cc(C(F)(F)F)c2)[C@@H]1C)C1CCOCC1` [Example 51]: the IC50 was 12.7 nM.

`CCN(c1ncc(C(F)(F)F)cc1CN1C(=O)O[C@H](c2cc(C(F)(F)F)cc(C(F)(F)F)c2)[C@@H]1C)C1CCOC1` (stereo partly drawn) [Example 2, (4S,5R)-5-[3,5-bis(trifluoromethyl)phenyl]-4-methyl-3-{(2-[ethyl(tetrahydrofuran-3-yl)amino]-5-(trifluoromethyl)pyridin-3-yl)methyl}-oxazolidin-2-one]: the concentration for half-maximal inhibition (IC50) is 143 nM.

For the compound `CCC(=O)N1CCC(N(CC)c2ncc(C(F)(F)F)cc2CN2C(=O)O[C@H](c3cc(C(F)(F)F)cc(C(F)(F)F)c3)[C@@H]2C)CC1` [Example 34, (4S,5R)-5-[3,5-bis(trifluoromethyl)phenyl]-4-methyl-3-({[2-(ethyl)(1-propionylpiperidin-4-yl)amino]-5-(trifluoromethyl)pyridin-3-yl}methyl)-oxazolidin-2-one], the half-maximal inhibitory concentration (IC50) worked out at 62 nM.

Consider `CCN(C[C@H]1CC[C@H](CC(=O)O)CC1)c1ncc(-c2cn(C)nc2C)nc1CN1C(=O)OC(c2cc(C(F)(F)F)cc(C(F)(F)F)c2)[C@@H]1C` (stereo partly drawn) [Example 108], for which the IC50 was found to be 45.9 nM.

In the case of `C[C@H]1[C@@H](c2cc(C(F)(F)F)cc(C(F)(F)F)c2)OC(=O)N1Cc1cc(C(F)(F)F)cnc1N(C)C1CCOC1` (stereo partly drawn) [Example 1, (4S,5R)-5-[3,5-bis(trifluoromethyl)phenyl]-4-methyl-3-[(2-(methyl(tetrahydrofuran-3-yl)amino)-5-(trifluoromethyl)pyridin-3-yl)methyl]-oxazolidin-2-one], the half-maximal inhibitory concentration (IC50) was 112 nM.

For `CCN(C[C@H]1CC[C@H](CC(=O)O)CC1)c1ncc(-c2sccc2OC)nc1CN1C(=O)OC(c2cc(C(F)(F)F)cc(C(F)(F)F)c2)[C@@H]1C` (stereo partly drawn) [Example 109], the IC50 stood at 3.84 nM.

For `CCN(c1ncc(C(F)(F)F)cc1CN1C(=O)O[C@H](c2cc(C(F)(F)F)cc(C(F)(F)F)c2)[C@@H]1C)C1CCCCC1` [Example 53, (4S,5R)-5-[3,5-bis(trifluoromethyl)phenyl]-4-methyl-3-({[2-(ethyl)(cyclohexyl)amino]-5-(trifluoromethyl)pyridin-3-yl}methyl)-oxazolidin-2-one], the half-maximal inhibitory concentration (IC50) amounted to 5.2 nM.

With `CCN(c1ncc(N2CCCC2C(F)(F)F)cc1CN1C(=O)O[C@H](c2cc(C(F)(F)F)cc(C(F)(F)F)c2)[C@@H]1C)C1CCCCC1` (stereo partly drawn) [Example 92, (4S,5R)-5-[3,5-bis(trifluoromethyl)phenyl]-4-methyl-3-({[2-(ethyl)(cyclohexyl)amino]-5-(2-(trifluoromethyl)-pyrrolidin-1-yl)pyridin-3-yl}methyl)-oxazolidin-2-one], the IC50 is 48 nM.

For the compound `CCN(c1ncc(C(F)(F)F)cc1CN1C(=O)O[C@H](c2cc(C(F)(F)F)cc(C(F)(F)F)c2)[C@@H]1C)C1CCN(CC(=O)OC)CC1` [Example 38, methyl 2-(4-{[3-({(4S,5R)-5-[3,5-bis(trifluoromethyl)phenyl]-4-methyl-2-oxo-oxazolidin-3-yl}methyl)-5-(trifluoromethyl)pyridin-2-yl](ethyl)amino}piperidin-1-yl)acetate], the IC50 amounted to 19.3 nM.

`CCN(C[C@H]1CC[C@H](CC(=O)O)CC1)c1ncc(-c2cncc(F)c2)nc1CN1C(=O)OC(c2cc(C(F)(F)F)cc(C(F)(F)F)c2)[C@@H]1C` (stereo partly drawn) [Example 120]: the IC50 worked out at 24.8 nM.

Take `CCN(C[C@H]1CC[C@H](CC(=O)O)CC1)c1ncc(-c2cccs2)nc1CN1C(=O)OC(c2cc(C(F)(F)F)cc(C(F)(F)F)c2)[C@@H]1C` (stereo partly drawn) [Example 114]: the half-maximal inhibitory concentration (IC50) came out at 10.3 nM.

`CCN(c1ncc(C(F)(F)F)cc1CN1C(=O)O[C@H](c2cc(C(F)(F)F)cc(C(F)(F)F)c2)[C@@H]1C)C1CC[S+]([O-])CC1` (stereo partly drawn) [Example 26, (4S,5R)-5-[3,5-bis(trifluoromethyl)phenyl]-4-methyl-3-({[2-(ethyl)(1-oxidotetrahydro-2H-thiopyran-4-yl)amino]-5-(trifluoromethyl)pyridin-3-yl}methyl)-oxazolidin-2-one]: the IC50 was determined as 100 nM.

As for `CCN(c1ncc(C(F)(F)F)cc1CN1C(=O)O[C@H](c2cc(C(F)(F)F)cc(C(F)(F)F)c2)[C@@H]1C)C1CCN(C(C)=O)CC1` [Example 33, (4S,5R)-5-[3,5-bis(trifluoromethyl)phenyl]-4-methyl-3-({[2-(ethyl)(1-acetylpiperidin-4-yl)amino]-5-(trifluoromethyl)pyridin-3-yl}methyl)-oxazolidin-2-one], the IC50 is 39.9 nM.

With `CCN(CC1CCC(CCO)CC1)c1ncc(N2CCCC2)nc1CN1C(=O)OC(c2cc(C(F)(F)F)cc(C(F)(F)F)c2)C1C` [Example 131, trans-4-({[3-({(4S,5S)-5-[3,5-bis(trifluoromethyl)phenyl]-4-methyl-2-oxazolidin-3-yl}methyl)-5-(pyrrolidin-4-yl)pyrazin-2-yl]{[N-(ethyl)aminomethyl]cyclohexyl)}propanol], the IC50 amounted to 4.98 nM.

Take `CCN(c1ncc(C(F)(F)F)cc1CN1C(=O)O[C@H](c2cc(C(F)(F)F)cc(C(F)(F)F)c2)[C@@H]1C)C1CCN(CC(=O)O)CC1` [Example 39, 2-(4-{[3-({(4S,5R)-5-[3,5-bis(trifluoromethyl)phenyl]-4-methyl-2-oxo-oxazolidin-3-yl}methyl)-5-(trifluoromethyl)pyridin-2-yl](ethyl)amino}piperidin-1-yl)acetic acid]: the IC50 was 492 nM.

(Values after patent publication US9533977B2, “Oxazolidinone derivative as CETP inhibitor, its preparation method, and pharmaceutical composition comprising the same” (DONG-A ST CO., LTD., priority 2013, dated 2017).)
